# According to patent US11180474B2 (BRISTOL-MYERS SQUIBB COMPANY, priority 2016, dated 2021):
# Experiments:
# [1] = target: T1, human TLR9 (Homo sapiens, UniProt Q9NR96); assay: TLR9 inhibition reporter assay (HEK-Blue cells, SEAP reporter, ODN2006 stimulation); type: cell-based; conditions: HEK-Blue cells overexpressing human TLR9, ODN2006 5 nM
# T1 construct: host or cells: HEK-Blue cells
# T1 sequence (Q9NR96 26-1032): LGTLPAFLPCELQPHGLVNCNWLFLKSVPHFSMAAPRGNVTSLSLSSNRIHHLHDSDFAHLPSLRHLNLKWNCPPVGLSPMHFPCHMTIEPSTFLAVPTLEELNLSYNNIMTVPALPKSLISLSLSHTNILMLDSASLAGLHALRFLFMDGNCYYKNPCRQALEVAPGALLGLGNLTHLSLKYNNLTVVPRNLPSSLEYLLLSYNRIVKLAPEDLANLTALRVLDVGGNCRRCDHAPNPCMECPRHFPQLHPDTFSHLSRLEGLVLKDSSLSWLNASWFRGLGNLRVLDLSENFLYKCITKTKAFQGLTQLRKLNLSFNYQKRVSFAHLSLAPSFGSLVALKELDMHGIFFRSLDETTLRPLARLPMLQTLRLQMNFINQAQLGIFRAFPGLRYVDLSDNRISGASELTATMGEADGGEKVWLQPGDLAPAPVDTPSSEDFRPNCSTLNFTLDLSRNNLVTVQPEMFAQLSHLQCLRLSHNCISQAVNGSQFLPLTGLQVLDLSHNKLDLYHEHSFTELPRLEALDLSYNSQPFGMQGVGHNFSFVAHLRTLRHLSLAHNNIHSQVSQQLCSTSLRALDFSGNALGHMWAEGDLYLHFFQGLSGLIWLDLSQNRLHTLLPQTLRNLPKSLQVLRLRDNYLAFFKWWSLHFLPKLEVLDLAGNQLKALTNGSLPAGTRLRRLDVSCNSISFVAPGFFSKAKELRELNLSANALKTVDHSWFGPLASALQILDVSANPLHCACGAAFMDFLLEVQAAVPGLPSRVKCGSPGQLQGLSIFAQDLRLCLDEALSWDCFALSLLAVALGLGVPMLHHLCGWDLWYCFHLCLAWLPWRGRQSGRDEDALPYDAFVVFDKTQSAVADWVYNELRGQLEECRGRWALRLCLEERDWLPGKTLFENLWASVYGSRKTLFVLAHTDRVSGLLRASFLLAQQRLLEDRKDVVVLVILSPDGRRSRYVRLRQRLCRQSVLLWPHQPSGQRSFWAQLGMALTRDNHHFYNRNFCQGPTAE
# Summary of the method: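 Dose–response from 0.05 nM to 50 μM was run in HEK-Blue human TLR7, TLR8 and TLR9 reporter cells. After 30 min at room temperature with compound, ligand was added (TLR7 gardiquimod 7.5 μM; TLR8 R848 15.9 μM; TLR9 ODN2006 5 nM) and SEAP measured next day, at 22 h.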
# [2] = target: T2, human TLR8 (Homo sapiens, UniProt Q9NR97); assay: TLR8 inhibition reporter assay (HEK-Blue cells, SEAP reporter, R848 stimulation); type: cell-based; conditions: HEK-Blue cells overexpressing human TLR8, R848 15.9 μM
# T2 construct: host or cells: HEK-Blue cells
# T2 sequence (Q9NR97 27-1041): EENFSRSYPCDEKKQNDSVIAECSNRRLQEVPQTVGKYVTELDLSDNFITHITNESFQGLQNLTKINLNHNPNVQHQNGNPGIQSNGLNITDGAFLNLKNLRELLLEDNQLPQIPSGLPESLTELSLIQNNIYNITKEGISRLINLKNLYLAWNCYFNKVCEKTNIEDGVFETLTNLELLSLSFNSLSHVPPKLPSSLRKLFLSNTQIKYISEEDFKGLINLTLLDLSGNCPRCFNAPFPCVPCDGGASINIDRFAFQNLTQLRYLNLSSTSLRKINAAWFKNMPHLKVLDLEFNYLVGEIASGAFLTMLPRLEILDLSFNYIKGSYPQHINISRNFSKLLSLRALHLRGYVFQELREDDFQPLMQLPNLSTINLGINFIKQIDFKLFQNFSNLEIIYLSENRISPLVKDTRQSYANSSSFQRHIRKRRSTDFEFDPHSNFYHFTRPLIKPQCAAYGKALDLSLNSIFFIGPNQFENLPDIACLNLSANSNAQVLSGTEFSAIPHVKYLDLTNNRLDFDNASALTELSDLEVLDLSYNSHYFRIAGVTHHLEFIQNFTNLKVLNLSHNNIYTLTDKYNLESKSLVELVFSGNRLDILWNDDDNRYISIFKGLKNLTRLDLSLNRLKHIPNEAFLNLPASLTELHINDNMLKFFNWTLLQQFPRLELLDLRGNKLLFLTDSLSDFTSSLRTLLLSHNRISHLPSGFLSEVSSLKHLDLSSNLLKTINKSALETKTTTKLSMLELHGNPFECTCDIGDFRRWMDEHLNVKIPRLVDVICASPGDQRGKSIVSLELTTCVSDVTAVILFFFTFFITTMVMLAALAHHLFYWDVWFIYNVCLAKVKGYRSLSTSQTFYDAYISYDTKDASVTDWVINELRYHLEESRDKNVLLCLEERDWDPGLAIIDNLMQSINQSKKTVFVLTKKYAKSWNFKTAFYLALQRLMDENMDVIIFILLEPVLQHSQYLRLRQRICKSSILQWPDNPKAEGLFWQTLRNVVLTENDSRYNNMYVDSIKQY
# Summary of the method: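 In this cell reporter format, test compounds at 0.05 nM-50 μM final incubate 22 h with seeded cells (TLR7 15000, TLR8 20,000 per well). SEAP read-out by HEK-Blue Detection medium yields % inhibition relative to agonist/DMSO and known-inhibitor wells.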
IC50 [1] [nM],IC50 [2] [nM],SMILES
397,196,"CCN1CCCC(N2CCC(c3ccc4[nH]c(-c5ccc(OC)c(OC)c5)c(C)c4c3)CC2)CC1 (stereo not shown) [Example 97, 2-(3,4-dimethoxyphenyl)-5-(1-(1-ethylazepan-4-yl)piperidin-4-yl)-3-methyl-1H-indole]"
279,25,"CCN(CC)C(=O)C1CCCN(CC(=O)N2CCC(c3ccc4[nH]c(-c5ccc(OC)c(OC)c5)c(CC(F)(F)F)c4c3)CC2)C1 (stereo not shown) [Example 420, 1-(2-(4-(2-(3,4-dimethoxyphenyl)-3-(2,2,2-trifluoroethyl)-1H-indol-5-yl)piperidin-1-yl)-2-oxoethyl)-N,N-diethylpiperidine-3-carboxamide]"
442,510,"COc1ccc(-c2[nH]c3ccc(C4CCN(C5CCN(CCC(F)(F)F)CC5)CC4)cc3c2C)cc1OC [Example 50, 2-(3,4-dimethoxyphenyl)-3-methyl-5-(1′-(3,3,3-trifluoropropyl)-[1,4′-bipiperidin]-4-yl)-1H-indole]"
2280,71,"CCN(CC)C(=O)C1CCCN(CC(=O)N2CCC(c3ccc4[nH]c(-c5ccc(OC)c(OC)c5)c(CC(F)(F)F)c4c3)CC2)C1 (stereo not shown) [Example 421, 1-(2-(4-(2-(3,4-dimethoxyphenyl)-3-(2,2,2-trifluoroethyl)-1H-indol-5-yl)piperidin-1-yl)-2-oxoethyl)-N,N-diethylpiperidine-3-carboxamide]"
2000,4770,"COc1ccc(-c2[nH]c3ccc(C4CCN(C(=O)CN(C)CCO)CC4)cc3c2C)cc1OC [Example 408, 1-(4-(2-(3,4-dimethoxyphenyl)-3-methyl-1H-indol-5-yl)piperidin-1-yl)-2-((2-hydroxyethyl)(methyl)amino)ethan-1-one]"
626,28,"CNCCN1CCC(c2ccc3[nH]c(-c4ccc(OC)c(OC)c4)c(CC(F)(F)F)c3c2)CC1 [Example 413, 2-(4-(2-(3,4-dimethoxyphenyl)-3-(2,2,2-trifluoroethyl)-1H-indol-5-yl)piperidin-1-yl)-N-methylethanamine]"
180,187,"COc1ccc(-c2[nH]c3ccc(C4CCN(C5CCN(Cc6cncn6C)CC5)CC4)cc3c2C)cc1OC [Example 59, 2-(3,4-dimethoxyphenyl)-3-methyl-5-(1′-((1-methyl-1H-imidazol-5-yl)methyl)-[1,4′-bipiperidin]-4-yl)-1H-indole]"
88,182,"COc1ccc(-c2[nH]c3ccc(C4CCN(C5CCN(C6CCCCC6)CC5)CC4)cc3c2C)cc1OC [Example 68, 5-(1′-cyclohexyl-[1,4′-bipiperidin]-4-yl)-2-(3,4-dimethoxyphenyl)-3-methyl-1H-indole]"
169,325,"COc1ccc(-c2[nH]c3ccc(C4CCN(C5CCN(CC(C)(C)C)CC5)CC4)cc3c2C)cc1OC [Example 75, 2-(3,4-dimethoxyphenyl)-3-methyl-5-(1′-neopentyl-[1,4′-bipiperidin]-4-yl)-1H-indole]"
112,195,"COc1ccc(-c2[nH]c3ccc(C4CCN(C5CCN(Cc6cccs6)CC5)CC4)cc3c2C)cc1OC [Example 64, 2-(3,4-dimethoxyphenyl)-3-methyl-5-(1′-(thiophen-2-ylmethyl)-[1,4′-bipiperidin]-4-yl)-1H-indole]"
247,21,"COc1ccc(-c2[nH]c3ccc(C4CCN(C5CCN(C(C)C)CC5)CC4)cc3c2CC(F)(F)F)cc1OC [Example 412, 2-(3,4-dimethoxyphenyl)-5-(1′-isopropyl-[1,4′-bipiperidin]-4-yl)-3-(2,2,2-trifluoroethyl)-1H-indole]"
115,195,"COc1ccc(-c2[nH]c3ccc(C4CCN(C5CCCN(CC(C)C)CC5)CC4)cc3c2C)cc1OC (stereo not shown) [Example 95, 2-(3,4-dimethoxyphenyl)-5-(1-(1-isobutylazepan-4-yl)piperidin-4-yl)-3-methyl-1H-indole]"
196,217,"COc1ccc(-c2[nH]c3ccc(C4CCN(C5CCN(C6CCCC6)CC5)CC4)cc3c2C)cc1OC [Example 62, 5-(1′-cyclopentyl-[1,4′-bipiperidin]-4-yl)-2-(3,4-dimethoxyphenyl)-3-methyl-1H-indole]"
86,258,"COc1ccc(-c2[nH]c3ccc(C4CCN(C5CCN(CC6CCCCC6)CC5)CC4)cc3c2C)cc1OC [Example 58, 5-(1′-(cyclohexylmethyl)-[1,4′-bipiperidin]-4-yl)-2-(3,4-dimethoxyphenyl)-3-methyl-1H-indole]"
268,333,"COc1ccc(-c2[nH]c3ccc(C4CCN(C5CCN(CC(O)CO)CC5)CC4)cc3c2C)cc1OC (stereo not shown) [Example 52, 3-(4-(2-(3,4-dimethoxyphenyl)-3-methyl-1H-indol-5-yl)-[1,4′-bipiperidin]-1′-yl)propane-1,2-diol]"
2350,11200,"COc1ccc(-c2[nH]c3ccc(C4CCN(C(=O)CN5CCN(C)CC5)CC4)cc3c2C)cc1OC [Example 409, 1-(4-(2-(3,4-dimethoxyphenyl)-3-methyl-1H-indol-5-yl)piperidin-1-yl)-2-(4-methylpiperazin-1-yl)ethan-1-one]"
174,317,"COc1ccc(-c2[nH]c3ccc(C4CCN(C5CCN(CC(C)(C)CO)CC5)CC4)cc3c2C)cc1OC [Example 69, 3-(4-(2-(3,4-dimethoxyphenyl)-3-methyl-1H-indol-5-yl)-[1,4′-bipiperidin]-1′-yl)-2,2-dimethylpropan-1-ol]"
195,281,"COc1ccc(-c2[nH]c3ccc(C4CCN(C5CCCN(CC6CC6)CC5)CC4)cc3c2C)cc1OC (stereo not shown) [Example 94, 5-(1-(1-(cyclopropylmethyl)azepan-4-yl)piperidin-4-yl)-2-(3,4-dimethoxyphenyl)-3-methyl-1H-indole]"
172,238,"COc1ccc(-c2[nH]c3ccc(C4CCN(C5CCN(Cc6ccco6)CC5)CC4)cc3c2C)cc1OC [Example 76, 2-(3,4-dimethoxyphenyl)-5-(1′-(furan-2-ylmethyl)-[1,4′-bipiperidin]-4-yl)-3-methyl-1H-indole]"
72,293,"CCCCCN1CCC(N2CCC(c3ccc4[nH]c(-c5ccc(OC)c(OC)c5)c(C)c4c3)CC2)CC1 [Example 55, 2-(3,4-dimethoxyphenyl)-3-methyl-5-(1′-pentyl-[1,4′-bipiperidin]-4-yl)-1H-indole]"
